# Test results: patent US6987093B2 (priority 2001, dated 2006)
# “And” between values parts separate entries of the source, which are not always exact repeats. Identical values can stand only once.
# What was measured:
# [1] = system: Haemophilus influenzae 54A1100; assay: Murine acute infection (peritonitis) model challenged with Haemophilus influenzae; format: in vivo, mouse; conditions: for PD50: s.c.
# [2] = system: Haemophilus influenzae 54A1218; assay: Gerbil middle ear infection in vivo time kill, H. influenzae 54A1218; conditions: for eradication: at 72 and 96 hours post-infection
# [3] = system: Mycoplasma pneumoniae; conditions: single oral 10 mg/kg dose; only one of several macrolides tested; cited from earlier work
# [4] = system: H. influenzae; assay: Susceptibility testing of trial H. influenzae isolates; format: cell-based, Haemophilus influenzae; conditions: NCCLS criteria
# Description: Samples of middle ear fluid were split for storage at a central laboratory and cultured locally. All pathogens isolated locally were subcultured and sent to a central laboratory for confirmation and susceptibility testing, performed by Kirby-Bauer disk-diffusion or MIC testing according to NCCLS standards.
# Cultures were taken for antimicrobial susceptibility testing and bacterial species were identified. Current NCCLS approved breakpoints for MICs and zone sizes were applied to all data irrespective of the breakpoint in use at the time of the study. The isolates from the clinical studies were sent to central laboratories for identification and susceptibility determination. The methods for agar diffusion disk tests are those recommended by NCCLS.
# The susceptibility breakpoints for azithromycin were defined as follows: […]
# [5] = system: H. influenzae 54A1218; assay: MIC determination, H. influenzae 54A1218; format: cell-based; conditions: Haemophilus influenzae
# Protocol: MIC Determinations. Streptococcus pneumoniae, S. pyogenes, E. faecalis, and H. influenzae MICs were determined using the broth microdilution procedure recommended by the NCCLS. Test trays were incubated at 35C without carbon dioxide. For testing of streptococci, the cation-adjusted Mueller-Hinton broth was supplemented with 2–3% lysed horse blood. For testing H. influenzae, freshly prepared Haemophilus Test Medium broth was used.
# Bacterial Strains. • S. pneumoniae 02J1016, serotype 3, originally isolated from blood culture (strain P 4241) (MLS- and penicillin-susceptible). • S. pyogenes 02C0203, ATCC 12384, group A, type 3 (MLS-susceptible). • E. faecalis 03A1085, vancomycin susceptible clinically derived strain. • H. influenzae 54A1100, (43095 ATCC Fulghum strain) non-serotype B strain originally isolated from otitis media (macrolide and penicillin susceptible). • H. influenzae 54A1218, clinically derived non-serotype B strain (macrolide-susceptible, penicillin-resistant, TEM-1 beta-lactamase).
# [6] = system: Streptococcus pneumoniae 02J1016; assay: Murine lung (pulmonary/pneumonia) infection model challenged with Streptococcus pneumoniae; format: in vivo, mouse
# [7] = system: Streptococcus pyogenes 02C0203; assay: Murine acute infection (peritonitis) model challenged with Streptococcus pyogenes; format: in vivo, mouse
# [8] = system: H. influenzae; assay: Study 95-001 Kirby-Bauer disk diffusion susceptibility, H. influenzae; format: cell-based, Haemophilus influenzae; conditions: all H. influenzae organisms isolated
# Protocol: Specimens for culture and susceptibility testing were obtained from the infected ear by tympanocentesis within 24 h of start of therapy. […] However, the study was evaluated using the breakpoints in the most recent set of guidelines.
# [9] = system: S. pneumoniae; assay: Single dose azithromycin pediatric AOM trial, subjects with S. pneumoniae at baseline; format: in vivo, human; conditions: for patients cured at day 28: 30 mg/kg
# Description: Children six months to twelve years were enrolled if they had symptoms and signs of acute otitis media (“AOM”) for less than four weeks and middle ear effusion by acoustic reflectometry. Symptoms necessary for enrollment included ear pain or fullness, discharge from the external auditory canal, decreased hearing or fever. On physical examination they must have had one or more of the following: bulging or marked erythema of the tympanic membrane, loss of the normal light reflex or tympanic membrane landmarks, or impaired tympanic mobility on biphasic pneumatic otoscopy. The effusion was to be documented by acoustic reflectometry with an abnormal reading of 3 or higher.
# Samples of middle ear fluid were obtained by tympanocentesis or, in the case of a perforated tympanic membrane, by swab. Middle ear fluid samples were obtained for culture at baseline. […] Children who vomited within thirty minutes of dosing were redosed.
# Samples of middle ear fluid were split for storage at a central laboratory and cultured locally.
# A phone contact occurred on study day 5 to assess for adverse events followed by visits on days 10 and 24–28, at which time detailed clinical assessments were made and adverse events were recorded. Definitions included clinical cure (complete resolution of all signs and symptoms of AOM); improvement (partial resolution of signs and symptoms); or failure (no change or worsening of signs and symptoms, or requirement for additional antibiotic therapy for AOM). Any patient considered to have failed therapy was to have a repeat tympanocentesis.
# The primary endpoint of the trial was the investigator designated cure rate at Day 24–28 for which a 95% confidence interval was computed using the normal approximation to the binomial distribution. Other endpoints analyzed included the clinical response rate by baseline pathogen at Day 24–28, the overall clinical response at Day 10, the percentage of subjects with individual signs and symptoms, as well as findings from pneumatic otoscopy and acoustic reflectometry. Only Streptococcus pneumoniae, Moraxella catarrhalis and Haemophilus influenzae were considered baseline pathogens for the purposes of these analyses.
# Not all strains are equally virulent and the growth rate and kinetics of infection may influence the outcome. In addition, H. influenzae has been a difficult organism to culture from the middle ear.
# [10] = oral QD, murine peritonitis model
# [11] = oral QD, murine pneumonia model
compound,measurement,setting,value
"CC[C@H]1OC(=O)[C@H](C)[C@@H](O[C@H]2C[C@@](C)(OC)[C@@H](O)[C@H](C)O2)[C@H](C)[C@@H](O[C@@H]2O[C@H](C)C[C@H](N(C)C)[C@H]2O)[C@](C)(O)C[C@@H](C)CN(C)[C@H](C)[C@@H](O)[C@]1(C)O [Azithromycin, 9a-aza-9a-methyl-9-deoxo-9a-homoerythromycin A]",Oral PD50,[1]; Dosing Regimen 1 day,25.3 (14.3–36.2) mg/kg/day
same,Oral PD50,[1]; Dosing Regimen 2 days,49.9 (41.5–58.5) mg/kg/day
same,Oral PD50,[1]; Dosing Regimen 3 days,181.6 (180.1–183.1) mg/kg/day
same,Mice Surviving/Total,"[1]; mouse, in vivo",0/10 and 6/10 and 10/10 and 9/10 and 1/10 and 5/10
same,PD50,[1]; one therapeutic dose (one day regimen),25.3 mg/kg
same,ED50 One-Day Therapy,[1]; [10],30.3^1 mg/kg/therapy
same,ED50 Three-Day Therapy,[1]; [10],147 mg/kg/therapy
same,ED50 Two-Day Therapy,[1]; [10],48 mg/kg/therapy
same,PD50,"[1]; previously tested, standard dosing paradigm (b.i.d. on day 1)",27 mg/kg
same,Recoverable CFU (Bulla) [Log10.Geo.Mean] (SEM),"[2]; 66.6 mg/kg/day oral Q.D. [3 days], 48 hours post-infection",<5.2399 (1.21) log of cfu-bulla wash/ml and <5.2399 log of cfu-bulla wash/ml
same,Recoverable CFU (Bulla) [Log10.Geo.Mean] (SEM),"[2]; 66.6 mg/kg/day oral Q.D. [3 days], 72 hours post-infection",<2.0000 log of cfu-bulla wash/ml
same,Recoverable CFU (Bulla) [Log10.Geo.Mean] (SEM),"[2]; 66.6 mg/kg/day oral Q.D. [3 days], 96 hours post-infection",<2.0000 log of cfu-bulla wash/ml
same,Recoverable CFU (Bulla) [Log10.Geo.Mean] (SEM),"[2]; 100 mg/kg/day oral Q.D. [2 days], 48 hours post-infection",<3.8587 (1.04) log of cfu-bulla wash/ml and <3.857 log of cfu-bulla wash/ml
same,Recoverable CFU (Bulla) [Log10.Geo.Mean] (SEM),"[2]; 100 mg/kg/day oral Q.D. [2 days], 72 hours post-infection",<2.0000 log of cfu-bulla wash/ml
same,Recoverable CFU (Bulla) [Log10.Geo.Mean] (SEM),"[2]; 100 mg/kg/day oral Q.D. [2 days], 96 hours post-infection",<2.0000 log of cfu-bulla wash/ml
same,Recoverable CFU (Bulla) [Log10.Geo.Mean] (SEM),"[2]; 200 mg/kg/day oral Q.D. [1 day], 48 hours post-infection",<2.0000 log of cfu-bulla wash/ml
same,Recoverable CFU (Bulla) [Log10.Geo.Mean] (SEM),"[2]; 200 mg/kg/day oral Q.D. [1 day], 72 hours post-infection",<2.0602 log of cfu-bulla wash/ml
same,Recoverable CFU (Bulla) [Log10.Geo.Mean] (SEM),"[2]; 200 mg/kg/day oral Q.D. [1 day], 96 hours post-infection",<2.0000 log of cfu-bulla wash/ml
same,eradication,[2]; Q.D. 2,eradication was observed
same,eradication,[2]; Q.D. 3,eradication was observed
same,% Clearance of Group,"[2]; QD1, 48 hours post infection, <1 × 10^3 cfu/ml considered negative",100%
same,% Clearance of Group,"[2]; QD1, 72 hours post infection",100%
same,% Clearance of Group,"[2]; QD1, 96 hours post infection",100%
same,% Clearance of Group,"[2]; QD2, 48 hours post infection",40%
same,% Clearance of Group,"[2]; QD2, 72 hours post infection",100%
same,% Clearance of Group,"[2]; QD2, 96 hours post infection",100%
same,% Clearance of Group,"[2]; QD3, 48 hours post infection",40%
same,% Clearance of Group,"[2]; QD3, 72 hours post infection",100%
same,% Clearance of Group,"[2]; QD3, 96 hours post infection",100%
same,efficacy,[3],efficacious
same,susceptibility of isolated H. influenzae to azithromycin,[4],susceptible
same,MIC,[5],0.78 µg/mL
same,Oral PD50,[6]; Dosing Regimen 1 day,20.4 (16.4–24.3) mg/kg/day
same,Oral PD50,[6]; Dosing Regimen 2 days,27.6 (22.8–32.4) mg/kg/day
same,Oral PD50,[6]; Dosing Regimen 3 days,49.4 (28.1–70.8) mg/kg/day
same,Mice Surviving/Total,"[6]; mouse, in vivo",0/10 and 10/10 and 7/10 and 1/10 and 9/10 and 4/10
same,ED50 One-Day Therapy,[6]; [11],20^1 mg/kg/therapy
same,ED50 Three-Day Therapy,[6]; [11],49 mg/kg/therapy
same,ED50 Two-Day Therapy,[6]; [11],27 mg/kg/therapy
same,Oral PD50,[7]; Dosing Regimen 1 day,1.0 (0.6–1.4) mg/kg/day
same,Oral PD50,[7]; Dosing Regimen 2 days,2.5 (1.8–3.3) mg/kg/day
same,Oral PD50,[7]; Dosing Regimen 3 days,3.8 (3.8–3.9) mg/kg/day
same,Mice Surviving/Total,"[7]; mouse, in vivo",1/10 and 10/10 and 8/10 and 3/10 and 0/10 and 9/10 and 7/10
same,ED50 One-Day Therapy,[7]; [10],0.78^1 mg/kg/therapy
same,ED50 Two-Day Therapy,[7]; [10],1.1 mg/kg/therapy
same,zone sizes (agar diffusion),[8],≥ 19 mm
same,susceptibility by agar diffusion (zone size),[8]; NCCLS breakpoint of ≧12 mm,susceptible
same,clinical cure rate versus susceptible S. pneumoniae isolates,[9]; MICs≦0.25 μg/ml,92.5%
same,strains clinically cured,"[9]; human, in vivo",40%
same,patients cured at day 28,"[9]; human, in vivo",two of these five
same,"Clinical cure at day 28, number of children",[9]; nine children with penicillin resistant S. pneumoniae isolates (MIC≧2 μg/ml),6
same,clinical cure rate versus resistant S. pneumoniae isolates,[9]; resistant isolates,66.7%
same,patients cured at day 28,"[9]; seven patients with mef A isolates (MIC 8 μg/ml), single 30 mg/kg dose",Six of these seven and 6/7
